In US8030354B2, “Substituted biphenyl GPR40 modulators” (Amgen Inc., priority 2007, dated 2011):

Target: GPR40 (Homo sapiens, UniProt O14842)
Experiment: Cell-based aequorin assay (CHO cells stably expressing GPR40 and aequorin)
Set-up: expressed in transfected cells; host or cells: CHO cells stably transfected with GPR40 and aequorin
Conditions: activation of human GPR40, CHO cells, 0.01% HSA
Procedure: Briefly, the Aequorin assays were performed on doubly stable CHO cells expressing GPR40 and Aequorin DNA. […] The luminescence was recorded over a period of 20 seconds with a Microlumat luminometer (Berthold). […] The inositol phosphate assay was performed on an A9 cell line stably transfected with GPR40 (A9_GPR40). The cells were incubated with different concentrations of compounds and [^3H] inositol accumulation was measured after 1 hour.
Cell-based aequorin assays were employed to characterize the modulatory activity of compounds on the GPR40 signaling pathway. In an exemplary assay, CHO cells were stably transfected with both GPR40 and Aequorin (Euroscreen). Cells were detached from the tissue culture dish with 2 mL of trypsin (0.25%(w/v)). Trypsinization was halted with 28 mL of Hanks Buffered Salt Solution containing 20 mM Hepes (H/HBSS) and 0.01% fatty acid-free human serum albumin (HSA). Coelantrazine is added to 1 ug/mL, and the cells were incubated for 2 hours at room temperature. Compounds were dissolved in DMSO for preparation of 10 mM stock solutions. Compounds were diluted in H/HBSS containing 0.01% HSA. Serial dilutions of the test compounds were prepared to determine dose response.
Aequorin luminescence measurements were made using an EG&G Berthold 96-well luminometer, and the response was measured over a 20 second interval after cells and compounds were mixed. The maximum relative light units was plotted to determine dose response. The EC50 (effective concentration to reach 50% maximal response) was determined from the dose response plot.

GPR40, sequence (O14842 whole entry): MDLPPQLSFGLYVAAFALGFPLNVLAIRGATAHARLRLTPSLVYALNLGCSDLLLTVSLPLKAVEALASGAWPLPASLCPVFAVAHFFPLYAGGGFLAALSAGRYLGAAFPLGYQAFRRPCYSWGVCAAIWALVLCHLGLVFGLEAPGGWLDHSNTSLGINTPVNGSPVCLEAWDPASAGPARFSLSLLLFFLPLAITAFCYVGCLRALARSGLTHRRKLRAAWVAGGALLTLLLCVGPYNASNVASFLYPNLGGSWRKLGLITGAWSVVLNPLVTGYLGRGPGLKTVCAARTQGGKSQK

EC50 [nM]	Compound
1000 to 10000	CSc1cccc(-c2ccc(COc3cccc(C(C)CC(=O)O)c3)cc2C(C)(C)C)c1 (single isomer, unassigned) [Example 64.23, (3R)-3-(3-(((2-(1,1-Dimethylethyl)-3′-(methylsulfanyl)-1,1′-biphenyl-4-yl)methyl)oxy)phenyl)butanoic acid or (3S)-3-(3-(((2-(1,1-dimethylethyl)-3′-(methylsulfanyl)-1,1′-biphenyl-4-yl)methyl)oxy)phenyl)butanoic acid]
1000 to 10000	CCOc1cccc(-c2ccc(COc3cccc(C(C)CC(=O)O)c3)cc2C(C)(C)C)c1 (single isomer, unassigned) [Example 64.24, (3R)-3-(3-(((2-(1,1-Dimethylethyl)-3′-(ethyloxy)-1,1′-biphenyl-4-yl)methyl)oxy)phenyl)butanoic acid or (3S)-3-(3-(((2-(1,1-dimethylethyl)-3′-(ethyloxy)-1,1′-biphenyl-4-yl)methyl)oxy)phenyl)butanoic acid]
1000 to 10000	COc1ccc(F)c(-c2ccc(C(C)Oc3cccc(C(C)CC(=O)O)c3)cc2C(C)(C)C)c1 (single isomer, unassigned) [Example 64.25]
1000 to 10000	CCCCOc1cc(COc2cccc(C(C)CC(=O)O)c2)ccc1-c1cccc(F)c1 (single isomer, unassigned) [Example 64.26, (3R)-3-(3-(((2-(butyloxy)-3′-fluoro-1,1′-biphenyl-4-yl)methyl)oxy)phenyl)butanoic acid or (3S)-3-(3-(((2-(butyloxy)-3′-fluoro-1,1′-biphenyl-4-yl)methyl)oxy)phenyl)butanoic acid]
100 to 1000	CCCCOc1cc(COc2cccc(C(CC)CC(=O)O)c2)ccc1-c1cccc(OC)c1 (single isomer, unassigned) [Example 65.2, (3R)-3-(3-(((2-(Butyloxy)-3′-(methyloxy)-1,1′-biphenyl-4-yl)methyl)oxy)phenyl)pentanoic acid or (3S)-3-(3-(((2-(butyloxy)-3′-(methyloxy)-1,1′-biphenyl-4-yl)methyl)oxy)phenyl)pentanoic acid]
100 to 1000	CCCCOc1cc(COc2cccc(C(CC(=O)O)C3CC3)c2)ccc1-c1cccc(OC)c1 (single isomer, unassigned) [Example 66.1, (3S)-3-(3-(((2-(Butyloxy)-3′-(methyloxy)-1,1′-biphenyl-4-yl)methyl)oxy)phenyl)-3-cyclopropylpropanoic acid or (3R)-3-(3-(((2-(butyloxy)-3′-(methyloxy)-1,1′-biphenyl-4-yl)methyl)oxy)phenyl)-3-cyclopropylpropanoic acid]
100 to 1000	COc1ccc(F)c(-c2ccc(COc3cccc(C(CC(=O)O)C4CC4)c3)cc2C2CCCC2(C)C)c1 (single isomer, unassigned) [Example 66.5]
100 to 1000	COc1cccc(-c2ccc(COc3cccc(C(CC(=O)O)C4CC4)c3)cc2C2CCCC2(C)C)c1 (single isomer, unassigned) [Example 66.7]
100 to 1000	CC1(C)CCC=C1c1cc(COc2cccc([C@@H](CC(=O)O)C3CC3)c2)ccc1-c1cc(O)ccc1F (single isomer, unassigned) [Example 66.14, (3S)-3-Cyclopropyl-3-(3-(((2-(5,5-dimethyl-1-cyclopenten-1-yl)-2′-fluoro-5′-hydroxy-1,1′-biphenyl-4-yl)methyl)oxy)phenyl)propanoic acid or (3R)-3-cyclopropyl-3-(3-(((2-(5,5-dimethyl-1-cyclopenten-1-yl)-2′-fluoro-5′-hydroxy-1,1′-biphenyl-4-yl)methyl)oxy)phenyl)propanoic acid]
100 to 1000	COc1ccc(F)c(-c2ccc(COc3cccc([C@@H](CC(=O)O)C4CC4)c3)cc2C2CCCCCCC2)c1 (single isomer, unassigned) [Example 66.16, (3S)-3-(3-(((2-Cyclooctyl-2′-fluoro-5′-(methyloxy)-1,1′-biphenyl-4-yl)methyl)oxy)phenyl)-3-cyclopropylpropanoic acid or (3R)-3-(3-(((2-cyclooctyl-2′-fluoro-5′-(methyloxy)-1,1′-biphenyl-4-yl)methyl)oxy)phenyl)-3-cyclopropylpropanoic acid]
100 to 1000	COc1ccc(F)c(-c2ccc(COc3cccc([C@@H](CC(=O)O)C4CC4)c3)cc2[C@H](C)C(C)(C)C)c1 (single isomer, unassigned) [Example 66.18]
1000 to 10000	CC1(C)CCC[C@@H]1c1cc(COc2cccc([C@@H](CC(=O)O)C3CC3)c2)ccc1-c1cc(OCC(F)(F)F)ccc1F (single isomer, unassigned) [Example 66.23]
100 to 1000	CC1(C)CCC[C@@H]1c1cc(COc2cccc([C@@H](CC(=O)O)C3CC3)c2)ccc1-c1cc(OC(F)(F)F)ccc1F (single isomer, unassigned) [Example 66.29]
100 to 1000	CO[C@@H](c1cc(COc2cccc([C@@H](CC(=O)O)C3CC3)c2)ccc1-c1ccccc1F)C(C)(C)C (single isomer, unassigned) [Example 66.32]
1000 to 10000	CC1(C)CCCC=C1c1cc(COc2cccc(C(CC(=O)O)C3CC3)c2)ccc1-c1cc(=O)[nH]cc1F (single isomer, unassigned) [Example 66.35, (3S)-3-Cyclopropyl-3-(3-(((3-(6,6-dimethyl-1-cyclohexen-1-yl)-4-(5-fluoro-2-oxo-1,2-dihydro-4-pyridinyl)phenyl)methyl)oxy)phenyl)propanoic acid or (3R)-3-cyclopropyl-3-(3-(((3-(6,6-dimethyl-1-cyclohexen-1-yl)-4-(5-fluoro-2-oxo-1,2-dihydro-4-pyridinyl)phenyl)methyl)oxy)phenyl)propanoic acid]
1000 to 10000	COc1ccc(F)c(-c2ccc(COc3cccc([C@@H](CC(=O)O)C4CC4)c3)cc2C(C2CC2)N(C)C)c1 (single isomer, unassigned) [Example 66.38, (3S)-3-Cyclopropyl-3-(3-(((2-(cyclopropyl(dimethylamino)methyl)-2′-fluoro-5′-(methyloxy)-1,1′-biphenyl-4-yl)methyl)oxy)phenyl)propanoic acid or (3R)-3-cyclopropyl-3-(3-(((2-(cyclopropyl(dimethylamino)methyl)-2′-fluoro-5′-(methyloxy)-1,1′-biphenyl-4-yl)methyl)oxy)phenyl)propanoic acid]
100 to 1000	COc1ccc(F)c(-c2ccc(COc3cccc([C@@H](CC(=O)O)C4CC4)c3)cc2C(OC)C(C)(C)CO)c1 (single isomer, unassigned) [Example 66.41, (S)-3-Cyclopropyl-3-{3-[2′-fluoro-2-(3-hydroxy-1-methoxy-2,2-dimethyl-propyl)-5′-methoxy-biphenyl-4-ylmethoxy]-phenyl}-propionic acid or (R)-3-cyclopropyl-3-{3-[2′-fluoro-2-(3-hydroxy-1-methoxy-2,2-dimethyl-propyl)-5′-methoxy-biphenyl-4-ylmethoxy]-phenyl}-propionic acid]
1000 to 10000	COc1ccc(F)c(-c2ccc(COc3cccc([C@@H](CC(=O)O)C4CC4)c3)cc2C2=CCOCC2)c1 (single isomer, unassigned) [Example 66.46, (3S)-3-Cyclopropyl-3-(3-(((2-(3,6-dihydro-2H-pyran-4-yl)-2′-fluoro-5′-(methyloxy)-1,1′-biphenyl-4-yl)methyl)oxy)phenyl)propanoic acid or (3R)-3-cyclopropyl-3-(3-(((2-(3,6-dihydro-2H-pyran-4-yl)-2′-fluoro-5′-(methyloxy)-1,1′-biphenyl-4-yl)methyl)oxy)phenyl)propanoic acid]
100 to 1000	CC1(C)CCC[C@@H]1c1cc(COc2cccc([C@@H](CC(=O)O)C3CC3)c2)ccc1-c1cccc(OC2CC2)c1 (single isomer, unassigned) [Example 66.48]

Compound	EC50 [nM]
COc1ccc(F)c(-c2ccc(COc3cccc([C@@H](CC(=O)O)C4CC4)c3)cc2[C@@H]2CCCCC2(C)C)c1 (single isomer, unassigned) [Example 66.21]	100 to 1000
COc1ccc(F)c(-c2ccc(COc3cccc([C@@H](CC(=O)O)C4CC4)c3)cc2[C@H](F)C(C)(C)C)c1 (single isomer, unassigned) [Example 66.30]	100 to 1000
COc1ccc(F)c(-c2cc(F)c(COc3cccc([C@@H](CC(=O)O)C4CC4)c3)cc2[C@@H]2CCCC2(C)C)c1 (single isomer, unassigned) [Example 66.45]	100 to 1000
CC1(C)CCC[C@H]1c1cc(COc2cccc([C@@H](CC(=O)O)C3CC3)c2)ccc1-c1cccc(OC(F)F)c1 (single isomer, unassigned) [Example 66.47]	100 to 1000
CC1(C)CCC[C@H]1c1cc(COc2cccc([C@@H](CC(=O)O)C3CC3)c2)ccc1-c1cc(C(F)F)ccc1F (single isomer, unassigned) [Example 66.52]	1000 to 10000
